Results published in patent US10815241B2, “Optically active azabicyclo ring derivative” (priority 2018, dated 2020).

Experiments:
[1] = target: Menin-MLL binding (His-Menin1-615 / MLL1-172-FLAG) (Homo sapiens (Human), UniProt O00255); assay: Test 1: inhibition of the Menin-MLL binding (HTRF)
Description: After the incubation, the signal was detected with RUBYstar (BMG LABTECH).

[2] = system: RS4; 11 cells; assay: Test 2: inhibition of cell proliferation, RS4;11; assay type: cell-based
Description: (§1) RS4; 11 cells were obtained from American Type Culture Collection (ATCC). […] MOLM-13 cells were separately obtained from DSMZ (Deutsche Sammlung von Mikroorganismen und Zellkulturen GmbH).
(§2) The cells were plated to a 96-well plate in 2000 cells/well, each test compound was added thereto to adjust the final concentration of DMSO to 0.1% of DMSO, and the cells were cultured for 7 days. After the cultivation, the cell viability was calculated with PrestoBlue™ Cell Viability Reagent (Invitrogen, A13261).

[3] = system: MOLM-13 cells; assay: Test 2: inhibition of cell proliferation, MOLM-13; assay type: cell-based; settings: Homo sapiens, 7 days, PrestoBlue cell viability
Description: as §1, §2

[4] = system: MEIS1; assay: Test 3: inhibition of mRNA transcription, MEIS1 in MV4;11 cells; assay type: cell-based
From the text: (§3) MV4; 11 cells were obtained from American Type Culture Collection (ATCC). […] The expression level of each obtained gene (MEIS1 and HOXA9) was fitted with the expression level of mRNA of GAPDH.

[5] = system: HOXA9; assay: Test 3: inhibition of mRNA transcription, HOXA9 in MV4;11 cells; assay type: cell-based; settings: 20 to 24 hours, relative to GAPDH
From the text: as §3

[6] = target: hERG (human Ether-a-go-go Related Gene) (Homo sapiens (Human), UniProt Q12809); assay: Test 4: hERG inhibition (QPatch HT, CHO cells stably expressing hERG)
hERG (human Ether-a-go-go Related Gene), sequence (Q12809 whole entry): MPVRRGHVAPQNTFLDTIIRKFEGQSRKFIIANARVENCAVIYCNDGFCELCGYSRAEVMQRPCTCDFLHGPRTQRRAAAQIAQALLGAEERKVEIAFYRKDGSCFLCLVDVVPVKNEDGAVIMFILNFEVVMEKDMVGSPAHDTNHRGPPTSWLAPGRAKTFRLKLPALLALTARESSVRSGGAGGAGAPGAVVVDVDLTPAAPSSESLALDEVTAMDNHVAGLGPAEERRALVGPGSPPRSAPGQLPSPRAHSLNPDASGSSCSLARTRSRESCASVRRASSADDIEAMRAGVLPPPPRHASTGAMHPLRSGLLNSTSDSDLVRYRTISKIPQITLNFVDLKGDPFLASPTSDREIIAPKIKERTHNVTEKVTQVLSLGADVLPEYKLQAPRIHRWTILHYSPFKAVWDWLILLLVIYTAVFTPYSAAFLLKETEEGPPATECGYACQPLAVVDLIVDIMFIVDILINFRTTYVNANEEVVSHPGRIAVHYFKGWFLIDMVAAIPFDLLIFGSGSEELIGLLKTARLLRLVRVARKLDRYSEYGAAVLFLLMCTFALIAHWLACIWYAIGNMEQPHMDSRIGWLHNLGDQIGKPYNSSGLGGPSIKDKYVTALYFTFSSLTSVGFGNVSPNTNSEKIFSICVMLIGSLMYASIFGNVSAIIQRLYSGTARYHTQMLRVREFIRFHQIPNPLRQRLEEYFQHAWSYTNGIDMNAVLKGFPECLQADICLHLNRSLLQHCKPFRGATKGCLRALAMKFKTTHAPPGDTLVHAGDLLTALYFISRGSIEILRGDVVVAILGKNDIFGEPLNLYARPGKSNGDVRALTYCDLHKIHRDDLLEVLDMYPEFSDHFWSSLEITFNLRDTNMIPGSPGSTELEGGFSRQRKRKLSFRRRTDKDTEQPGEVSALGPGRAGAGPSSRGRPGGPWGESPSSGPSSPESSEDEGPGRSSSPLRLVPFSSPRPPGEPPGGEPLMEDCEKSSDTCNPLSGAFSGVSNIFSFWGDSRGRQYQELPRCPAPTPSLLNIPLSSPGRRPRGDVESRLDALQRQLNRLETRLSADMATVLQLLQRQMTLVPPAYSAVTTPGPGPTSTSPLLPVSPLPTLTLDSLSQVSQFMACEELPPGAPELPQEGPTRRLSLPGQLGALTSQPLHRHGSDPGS

Menin-MLL binding (His-Menin1-615 / MLL1-172-FLAG), sequence (O00255 other isoform, or with tags, fused parts or gaps): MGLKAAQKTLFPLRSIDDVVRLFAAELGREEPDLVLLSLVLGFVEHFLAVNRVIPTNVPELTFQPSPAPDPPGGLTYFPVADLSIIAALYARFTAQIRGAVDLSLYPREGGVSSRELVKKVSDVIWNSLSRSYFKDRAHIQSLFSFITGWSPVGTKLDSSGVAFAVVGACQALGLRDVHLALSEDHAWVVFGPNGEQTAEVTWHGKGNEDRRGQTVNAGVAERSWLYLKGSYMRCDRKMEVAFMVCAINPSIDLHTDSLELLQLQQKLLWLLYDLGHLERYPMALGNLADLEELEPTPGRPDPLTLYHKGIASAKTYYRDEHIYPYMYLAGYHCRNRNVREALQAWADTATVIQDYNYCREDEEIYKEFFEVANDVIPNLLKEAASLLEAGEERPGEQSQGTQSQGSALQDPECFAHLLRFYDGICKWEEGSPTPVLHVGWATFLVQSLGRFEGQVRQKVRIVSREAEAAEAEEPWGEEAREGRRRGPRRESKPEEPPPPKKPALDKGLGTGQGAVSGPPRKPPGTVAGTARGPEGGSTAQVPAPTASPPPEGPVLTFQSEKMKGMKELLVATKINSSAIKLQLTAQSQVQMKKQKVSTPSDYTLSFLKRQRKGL

## CC(C)N(C(=O)c1cc(F)ccc1Oc1cncnc1N1CC2(CCN(C(=O)[C@H]3N[C@H]4CC[C@@H]3C[C@@H]4CC3CC3)CC2)C1)C(C)C [Example 1, 2-[(4-{7-[(1S,3S,4R,6S)-6-(Cyclopropylmethyl)-2-azabicyclo[2.2.2]octane-3-carbonyl]-2,7-diazaspiro[3.5]nonan-2-yl}pyrimidin-5-yl)oxy]-5-fluoro-N,N-di(propan-2-yl)benzamide]
[1]; Menin-MLL binding inhibition
  IC50: 5.3 nM
[1]; statement in words on the table of Test 1
  Menin-MLL binding inhibition activity: potent
[2]; Homo sapiens, RS4;11 cells, 7 days, PrestoBlue cell viability
  IC50: < 10 nM
[2]; statement in words, RS4;11 and MOLM-13 cells
  cell proliferation inhibition activity: potent
[3]
  IC50: 20 nM
[4]; MV4;11 cells, 1 μM, 20 to 24 hours, relative to GAPDH
  mRNA at 1 μM (% control) MEIS1: 11.8 % control
[4]; statement in words, MEIS1 and HOXA9, MV4;11 cells
  mRNA transcription inhibition activity: showed the mRNA transcription inhibition activity
[5]
  mRNA at 1 μM (% control) HOXA9: 40.2 % control
[6]
  IC50: 4000 nM
  gap between RS4; 11 proliferation IC50 and hERG current IC50: more than 100 fold
[6]; hERG IC50 divided by RS4;11 proliferation IC50
  hERG/RS4; 11: >400
